Measured values published in patent publication US7022716B2, “Cyclic amine phenyl beta-3 adrenergic receptor agonists” (Wyeth, priority 2000, dated 2006).

Tests used:
β3 Knockout(KO) Mice = assay: Thermogenesis (Oxymax indirect calorimetry) in β3 knockout mice; conditions: percent increase in thermogenesis over baseline; female FVB β3 knockout mice; i.p. 0.1-20 mg/kg or oral 1.0-30 mg/kg
β3 Transgenic(Tg) Mice = assay: Thermogenesis (Oxymax indirect calorimetry) in β3 transgenic mice; conditions: percent increase in thermogenesis over baseline; female FVB β3 transgenic mice; i.p. 0.1-20 mg/kg or oral 1.0-30 mg/kg
[1] = target: T1, human β3 adrenergic receptor (Homo sapiens, UniProt P13945); assay: cAMP (SPA) response in CHO cells transfected with human β3 adrenergic receptor; assay type: cell-based; set-up: key: fraction of maximal isoproterenol (10^-5 M) response; conditions: maximal response relative to maximal response of isoproterenol at 10^-5 M
T1 construct: Full length β3 AR clones (402 amino acids) containing the last 6 amino acids of hβ3-AR are prepared; expressed in transfected cells; host or cells: CHO (Chinese hamster ovary) cells
Summary of the method: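 Reactions were stopped with 0.2N HCl and neutralised, and cAMP was measured by SPA. Activity is expressed as percent of the maximal 10^−5 M isoproterenol response.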

T1 sequence (P13945 whole entry): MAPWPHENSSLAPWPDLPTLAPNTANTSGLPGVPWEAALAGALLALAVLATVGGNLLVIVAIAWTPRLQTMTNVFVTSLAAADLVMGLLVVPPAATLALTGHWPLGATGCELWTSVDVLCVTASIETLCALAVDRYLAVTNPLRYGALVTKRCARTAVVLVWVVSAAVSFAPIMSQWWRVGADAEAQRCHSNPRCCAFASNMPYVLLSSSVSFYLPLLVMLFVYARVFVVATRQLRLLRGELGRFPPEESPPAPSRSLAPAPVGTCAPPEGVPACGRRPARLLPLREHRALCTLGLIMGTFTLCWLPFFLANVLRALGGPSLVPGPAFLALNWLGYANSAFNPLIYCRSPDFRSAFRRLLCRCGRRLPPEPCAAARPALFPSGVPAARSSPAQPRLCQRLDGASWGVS

SMILES: CS(=O)(=O)Nc1cc(C(O)CNC2CCN(c3ccc(CC4SC(=O)NC4=O)cc3)CC2)ccc1O [Example 84, N-[5-((2R)-2-{1-[4-(2,4-Dioxo-thiazolidin-5-ylmethyl}-phenyl]-piperidin-4-ylamino}-1-hydroxy-ethyl)-2-hydroxy-phenyl]-methanesulfonamide]
- melting point: > 180 °C (dec.)
- Thermogenesis (KO mice) (β3 Knockout(KO) Mice): −2 ± 4%
- Thermogenesis (Tg mice) (β3 Transgenic(Tg) Mice): 30 ± 4%

SMILES: CCOC(=O)c1ccc(N2CCC(NC[C@H](O)c3ccc(O)c(NS(C)(=O)=O)c3)CC2)cc1 [Example 180, {4-[(2R)-2-Hydroxy-2-(4-hydroxy-3-methanesulfonylamino-phenyl)-ethylamino]-piperidin-1-yl}-benzoic acid ethyl ester]
- IA(β3) [1]: 1
- Thermogenesis (KO mice) (β3 Knockout(KO) Mice): 9 ± 5%
- Thermogenesis (Tg mice) (β3 Transgenic(Tg) Mice): 42 ± 4%

SMILES: CS(=O)(=O)Nc1cc([C@@H](O)CNC2CCN(c3ccc(C(=O)O)cc3)CC2)ccc1O [Example 186, 4-{4-[(2R)-2-Hydroxy-2-(4-hydroxy-3-methanesulfonylamino-phenyl)-ethylamino]-piperidin-1-yl}-benzoic acid]
- melting point: > 85 °C (dec.)
- IA(β3) [1]: 1.1
- Thermogenesis (KO mice) (β3 Knockout(KO) Mice): 16 ± 7%
- Thermogenesis (Tg mice) (β3 Transgenic(Tg) Mice): 77 ± 12%

SMILES: CCOC(=O)C(=Cc1ccc(N2CCC(NC[C@H](O)c3ccc(O)c(NS(C)(=O)=O)c3)CC2)cc1)C(=O)O [Example 189, 2-(4-{4-[(2R)-2-Hydroxy-2-(4-hydroxy-3-methanesulfonylamino-phenyl)-ethylamino]-piperidin-1-yl}-benzylidene)-malonic acid monoethyl ester]
- melting point: > 170 °C (dec.)
- IA(β3) [1]: 1.3
- Thermogenesis (KO mice) (β3 Knockout(KO) Mice): 6 ± 3%
- Thermogenesis (Tg mice) (β3 Transgenic(Tg) Mice): 33 ± 7%

SMILES: CS(=O)(=O)Nc1cc([C@@H](O)CNC2CCN(c3ccc(NC(=O)c4ccc5c(c4)OCO5)cc3)CC2)ccc1O [Example 394, N-(4-{4-[((2R)-2-Hydroxy-2-{4-hydroxy-3-[(methylsulfonyl)amino]phenyl}ethyl)amino]-1-piperidinyl}phenyl)-1,3-benzodioxole-5-carboxamide]
- melting point: 104 to 113 °C
- IA(β3) [1]: 1.3
